Data from patent US20240408096A1, “DOSING REGIMENS FOR ORAL ALK2 KINASE INHIBITORS” (BioCryst Pharmaceuticals, Inc., priority 2020, published 2024).

Legend:
[1] = biological target: T1, ALK2(R206H) (Homo sapiens, UniProt Q04771, R206H); test: ALK2(R206H) functional assays; assay type: biochemical; details: several functional assays; read-out: ALK2(R206H) activity potency (IC50)
T1 sequence (Q04771 21-509 R206H): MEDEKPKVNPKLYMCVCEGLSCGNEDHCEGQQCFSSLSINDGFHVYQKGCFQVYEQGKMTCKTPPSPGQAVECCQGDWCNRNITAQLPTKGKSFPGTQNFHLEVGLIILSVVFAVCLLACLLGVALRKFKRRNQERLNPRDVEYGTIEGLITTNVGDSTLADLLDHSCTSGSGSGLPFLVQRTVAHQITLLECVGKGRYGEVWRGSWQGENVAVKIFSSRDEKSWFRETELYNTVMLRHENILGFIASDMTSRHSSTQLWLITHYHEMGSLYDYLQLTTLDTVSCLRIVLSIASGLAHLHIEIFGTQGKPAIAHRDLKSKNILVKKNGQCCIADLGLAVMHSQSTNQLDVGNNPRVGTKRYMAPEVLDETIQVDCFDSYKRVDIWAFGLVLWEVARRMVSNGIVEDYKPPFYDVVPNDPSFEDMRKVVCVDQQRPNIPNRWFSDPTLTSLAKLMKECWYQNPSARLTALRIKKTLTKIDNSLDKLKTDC

[2] = ECG / QTc after oral administration to dogs; assay type: in vivo, dog; details: HEDs up to 667 mg based on a 60 kg subject
[3] = plasma protein binding, monkey; assay type: in vitro ADME; details: in vitro
[4] = metabolism by liver S9 fraction; assay type: in vitro ADME; details: animal and human liver S9 fraction
[5] = biological target: T2, CYP2B6 (Homo sapiens, UniProt P20813); test: CYP inhibition in vitro; assay type: in vitro ADME
T2 sequence (P20813 1-491): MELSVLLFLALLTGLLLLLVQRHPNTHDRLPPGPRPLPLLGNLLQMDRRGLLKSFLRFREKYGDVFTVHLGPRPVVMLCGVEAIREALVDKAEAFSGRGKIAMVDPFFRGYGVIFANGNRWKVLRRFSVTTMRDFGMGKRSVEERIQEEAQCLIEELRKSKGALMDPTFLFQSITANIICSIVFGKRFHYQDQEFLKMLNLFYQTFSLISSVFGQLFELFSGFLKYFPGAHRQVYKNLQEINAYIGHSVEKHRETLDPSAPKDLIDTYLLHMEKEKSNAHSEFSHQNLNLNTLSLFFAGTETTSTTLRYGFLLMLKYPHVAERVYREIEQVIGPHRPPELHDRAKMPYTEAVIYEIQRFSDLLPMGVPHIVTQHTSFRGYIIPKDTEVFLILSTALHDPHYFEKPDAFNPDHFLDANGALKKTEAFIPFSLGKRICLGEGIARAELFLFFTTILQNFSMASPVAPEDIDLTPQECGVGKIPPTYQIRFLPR

[6] = biological target: CYP2E1 (Homo sapiens, UniProt P05181); test: CYP inhibition in vitro; assay type: in vitro ADME
Chain of CYP2E1 (P05181 whole entry): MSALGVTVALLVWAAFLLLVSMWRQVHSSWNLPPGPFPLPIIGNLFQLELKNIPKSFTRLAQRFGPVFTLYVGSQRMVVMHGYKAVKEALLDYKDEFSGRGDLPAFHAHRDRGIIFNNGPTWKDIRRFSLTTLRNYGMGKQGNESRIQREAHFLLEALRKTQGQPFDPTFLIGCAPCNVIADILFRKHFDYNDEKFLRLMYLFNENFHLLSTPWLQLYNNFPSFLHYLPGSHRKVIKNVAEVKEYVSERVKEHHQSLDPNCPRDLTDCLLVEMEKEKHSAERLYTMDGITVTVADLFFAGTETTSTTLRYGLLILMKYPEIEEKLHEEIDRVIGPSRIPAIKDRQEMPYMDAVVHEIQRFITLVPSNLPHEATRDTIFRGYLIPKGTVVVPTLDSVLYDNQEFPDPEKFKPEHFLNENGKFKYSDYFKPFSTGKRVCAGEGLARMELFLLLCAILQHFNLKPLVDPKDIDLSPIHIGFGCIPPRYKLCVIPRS

[7] = system: CYP3A; test: CYP inhibition in vitro; assay type: in vitro ADME
[8] = biological target: CYP2C19 (Homo sapiens, UniProt P33261); test: CYP inhibition in vitro; assay type: in vitro ADME
Chain of CYP2C19 (P33261 whole entry): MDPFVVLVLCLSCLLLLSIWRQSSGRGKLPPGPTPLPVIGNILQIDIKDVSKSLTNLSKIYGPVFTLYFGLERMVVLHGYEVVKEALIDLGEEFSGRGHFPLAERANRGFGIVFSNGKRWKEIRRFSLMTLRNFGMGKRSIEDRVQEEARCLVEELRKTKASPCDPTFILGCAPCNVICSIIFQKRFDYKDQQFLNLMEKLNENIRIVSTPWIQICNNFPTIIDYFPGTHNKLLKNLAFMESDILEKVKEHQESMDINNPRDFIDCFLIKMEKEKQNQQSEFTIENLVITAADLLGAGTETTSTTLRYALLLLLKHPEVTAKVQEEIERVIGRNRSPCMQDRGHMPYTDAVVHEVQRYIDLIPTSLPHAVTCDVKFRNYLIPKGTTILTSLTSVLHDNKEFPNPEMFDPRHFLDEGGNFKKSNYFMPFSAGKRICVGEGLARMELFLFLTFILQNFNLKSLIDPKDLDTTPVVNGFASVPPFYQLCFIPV

[9] = biological target: CYP3A4 (Homo sapiens, UniProt P08684); test: CYP inhibition in vitro; assay type: in vitro ADME
Chain of CYP3A4 (P08684 whole entry): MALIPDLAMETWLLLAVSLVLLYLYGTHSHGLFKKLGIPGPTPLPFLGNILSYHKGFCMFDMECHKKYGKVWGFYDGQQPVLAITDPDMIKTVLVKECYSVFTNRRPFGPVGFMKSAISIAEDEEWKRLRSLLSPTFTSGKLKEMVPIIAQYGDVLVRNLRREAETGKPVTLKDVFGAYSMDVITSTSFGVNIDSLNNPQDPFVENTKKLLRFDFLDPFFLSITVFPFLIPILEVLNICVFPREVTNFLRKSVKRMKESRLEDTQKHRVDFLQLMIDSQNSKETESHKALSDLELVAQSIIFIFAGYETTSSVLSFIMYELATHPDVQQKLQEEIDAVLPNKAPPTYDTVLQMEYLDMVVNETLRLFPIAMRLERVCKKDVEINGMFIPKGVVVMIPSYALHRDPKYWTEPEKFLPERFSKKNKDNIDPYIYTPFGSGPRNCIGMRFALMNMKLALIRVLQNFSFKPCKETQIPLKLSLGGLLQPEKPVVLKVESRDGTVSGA

[10] = Phase 1 Part 1 (SAD) urinary PK; assay type: in vivo, human; details: for CLR,0-6 / CLR,6-12 / CLR,12-24 / Cum % excreted0-72 / CumAe0-72 / CLR,24-48: Part 1 SAD, geometric mean (CV%); for CumAe0-72: urine 0 to 72 hours
Protocol: Four sequential SAD cohorts were dosed.
Urine samples were collected according to the schedule in Tables 4 and 5 for Parts 1 and 2, respectively. The pre-dose sample on Day 1 was collected any time in the 2 hours prior to dosing. A 30-minute window was allowed around collection intervals.

[11] = Phase 1 Part 2 (MAD) safety and tolerability; assay type: in vivo, human; details: healthy subjects
Protocol: The primary outcome measure of Part 1 and Part 2 will be: (1) measurement of the safety and tolerability by subject incidence of graded treatment-emergent adverse events (TEAEs), laboratory abnormalities, and changes to vital signs, ECGs, cardiac telemetry, and physical examination findings.
Four sequential MAD cohorts were dosed.
For each cohort of Part 2, the daily dose of study drug was administered as a single dose (1 time daily or QD). Similar to Part 1 of the study, following a screening period to determine eligibility, subjects in each cohort entered the CRU on the […] of Day −1. Study eligibility was re-confirmed upon admission to the CRU, and subjects remained in the CRU overnight prior to dosing on Day 1. Subjects received a final morning dose of study drug on the last day of dosing. Subjects were discharged from the CRU following sample collection on Day 11. Dosage administration was supervised by study personnel and all subjects completed dosing per protocol. […] Subjects returned to the CRU on Day 23 (+2 days) for final follow-up safety assessments.

COc1cc(-n2cnc(Nc3nc(N4CCC[C@H]4C(N)=O)nc4sccc34)c2)cc(OC)c1OC.O=C(O)CC(O)(CC(=O)O)C(=O)O [Compound A]
IC50 [1]: < 100 nM
prolongation of corrected QT interval (QTc) or other ECG changes [2]: did not induce prolongation of corrected QT interval (QTc)
plasma protein binding [3]: ≥ 99.9%
metabolism / human-specific metabolites [4]: metabolized by animal and human liver S9 fraction with no apparent human-specific metabolites
CYP2B6 inhibition [5]: not an inhibitor
CYP2E1 inhibition [6]: not an inhibitor
CYP3A inhibition [7]: not an inhibitor
CYP2C19 inhibition [8]: is an inhibitor
CYP3A4 inhibition [9]: is an inhibitor
cumulative amount of parent compound excreted in the urine ([10]; Part 1, single doses 5 to 25 mg, all cohorts): less than 0.3 % of the administered dose
CLR,0-6 ([10]; 5 mg): 23.63 (28.3) mL/h
CLR,6-12 ([10]; 5 mg): 14.61 (92.8) mL/h
CLR,12-24 ([10]; 5 mg): 8.576 (263,3) mL/h
Cum % excreted0-72 ([10]; 5 mg): 0.2668 (43.6) %
CumAe0-72 ([10]; 5 mg): 13,340 (43.6) ng
CLR,0-6 ([10]; 10 mg): 9.499 (79.6) mL/h
CLR,6-12 ([10]; 10 mg): 6.137 (93.2) mL/h
CLR,12-24 ([10]; 10 mg): 4.759 (56,5) mL/h
Cum % excreted0-72 ([10]; 10 mg): 0.1206 (84.0) %
CumAe0-72 ([10]; 10 mg): 12,060 (84.0) ng
CLR,0-6 ([10]; 15 mg fasted): 12.84 (56.2) mL/h
CLR,6-12 ([10]; 15 mg fasted): 6.793 (98.8) mL/h
CLR,12-24 ([10]; 15 mg fasted): 8.008 (114.1) mL/h
CLR,24-48 ([10]; 15 mg fasted): 7.674 (80.2) mL/h
Cum % excreted0-72 ([10]; 15 mg fasted): 0.1409 (79.5) %
CumAe0-72 ([10]; 15 mg fasted): 21,130 (79.5) ng
CLR,0-6 ([10]; 25 mg): 15.98 (99.4) mL/h
CLR,6-12 ([10]; 25 mg): 10.56 (138.2) mL/h
CLR,12-24 ([10]; 25 mg): 9.785 (145.0) mL/h
CLR,24-48 ([10]; 25 mg): 10.44 (87.9) mL/h
Cum % excreted0-72 ([10]; 25 mg): 0.1928 (87.0) %
CumAe0-72 ([10]; 25 mg): 48,210 (87.0) ng
grade 3 or 4 adverse events ([11]; Part 2, 5 mg to 20 mg QD over 7 days): no grade 3 or 4 adverse events
safety and tolerability ([11]; Part 2, multiple ascending oral doses 5 mg to 20 mg QD over 7 days): safe and generally well tolerated
